This passage reports Kd results from publication PMC9385722 (Scientific Reports, 2022).

Each structure is given as a SMILES string.

The assay has as its target T1, TaHeR (Thermoplasmatales archaeon SG8-52-1, UniProt Z9O312AX90).
T1 construct: wild type, N-terminal 6xHis tag, pET21a(+), E. coli C43(DE3), purified in octyl glucoside; symmetric dimer, one protomer in asymmetric unit
T1 sequence (Z9O312AX90 1-259): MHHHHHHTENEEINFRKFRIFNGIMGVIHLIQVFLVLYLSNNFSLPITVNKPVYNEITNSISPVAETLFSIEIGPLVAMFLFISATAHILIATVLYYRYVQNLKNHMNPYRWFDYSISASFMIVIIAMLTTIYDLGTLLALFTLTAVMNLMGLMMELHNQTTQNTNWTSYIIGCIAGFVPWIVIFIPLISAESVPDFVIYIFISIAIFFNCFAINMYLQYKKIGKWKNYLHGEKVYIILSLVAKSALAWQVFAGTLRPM
The experiment in a line: absorption red-shift titration with NaCl. Type of assay: binding. To be noted: pH 5.0, up to 300 mM NaCl; anion site in Schiff base cavity near protonated Glu-108; crystal structure at pH 4.5 also shows a second, extracellular chloride.

Turning to `Cl` [chloride], the Kd is about 67 mM.

Broadly, the Kd is the equilibrium constant for the complex coming apart.
